{
  "source": "paper PMC8625052",
  "about": "“The Antiarrhythmic Activity of Novel Pyrrolidin-2-one Derivative S-75 in Adrenaline-Induced Arrhythmia” (Pharmaceuticals, 2021)",
  "key": {"[1]": {"tested_on": "post-reperfusion arrhythmia of isolated rat heart", "experiment": "Antiarrhythmic activity in the post-reperfusion model in isolated rat heart", "conditions": "reperfusion; for Extrasystoles (%) / Fibrillations (%) / Tachycardia (%): % occurrence; for Arrhythmia Severity Index: Bernauer scale", "procedure": "Hearts form Wistar rats were isolated and immersed in Chenoweth–Koelle solution (120 mM NaCl; 5 mM KCl; 2.2 mM MgCl2; […]; 2.4 mM CaCl2; 10 mM glucose). Hearts were perfused according to the Langendorff model under a constant pressure of 70 cm H2O (6.87 kPa) with a solution at 37 °C, pH 7.4, constantly oxygenated (O2/CO2, 19:1) using the MyoHEART Langendorff System-900MH (Danish Myo Technology, Hinnerup, Denmark), which monitored the ECG. After 20 min stabilization period, acute myocardial ischemia was induced locally by installing a clamp on the left coronary artery (ischemic period). After 15 min, the clamp was removed, and ECG changes were monitored for 30 min (reperfusion period). The tested compound was added to the perfusion solution 15 min before coronary artery clamping. The point scale described by Bernauer was used to assess the antiarrhythmic activity in this arrhythmia model. The occurrence of a specific type of heart rhythm disturbance during the reperfusion period was scored according to the following scale: • occurrence of less than 10 extrasystoles—1 point; • occurrence of more than 10 extrasystoles—2 points; • presence of ventricular tachycardia—3 points; • presence of fibrillation—4 points."}, "[2]": {"tested_on": "isolated ischemic rat hearts", "design": "method as in PMID 9228191", "conditions": "cited from earlier work"}, "[3]": {"tested_on": "adrenaline-induced arrhythmia in rats", "experiment": "Prophylactic antiarrhythmic activity in adrenaline-induced arrhythmia", "format": "in vivo, rat"}, "[4]": {"tested_on": "adrenaline-induced arrhythmia in rats", "experiment": "Therapeutic antiarrhythmic activity in adrenaline-induced arrhythmia", "format": "in vivo, rat", "procedure": "The experiments were carried out according to the method described by Szekeres and Papp. The heart rhythm disturbances were evoked by intravenous administration of adrenaline (20 µg/kg) to anesthetized rats (thiopental, 75 mg/kg). The tested compound was administered iv immediately after the injection of adrenaline, at dose 5 mg/kg. The ECG was recorded during the first 2 min and in the 5th, 10th, and 15th min after the adrenaline injection. […] The criterion of antiarrhythmic activity was the decrease or complete absence of extrasystoles, atrioventricular blocks and bradycardia in the ECG recording in comparison with the control group."}, "[5]": {"conditions": "adrenaline 20 μg/kg iv, dose 0.25 mg/kg iv 15 min before, % occurrence"}, "[6]": {"conditions": "5 mg/kg iv immediately after adrenaline, % occurrence"}},
  "note": "Marks after values point to notes of the source that are not given here.",
  "data": [
    {"molecule": "CCCCc1oc2ccccc2c1C(=O)c1cc(I)c(OCCN(CC)CC)c(I)c1", "note": "[Amiodarone]", "values": [
      {"measurement": "Extrasystoles (%)", "setting": "[1]; concentration 10^−9 M", "result": 100, "unit": "%"},
      {"measurement": "Fibrillations (%)", "setting": "[1]; concentration 10^−9 M", "result": 66.7, "unit": "%"},
      {"measurement": "Tachycardia (%)", "setting": "[1]; concentration 10^−9 M", "result": 100, "unit": "%"},
      {"measurement": "Arrhythmia Severity Index", "setting": "[1]; concentration 10^−9 M", "result": 7.7}
    ]},
    {"molecule": "Cc1ccc(N(CC2=NCCN2)c2cccc(O)c2)cc1", "note": "[phentolamine]", "values": [
      {"measurement": "reduction of the incidence of ventricular fibrillation / arrhythmias", "setting": "[2]", "result": 32, "unit": "%"}
    ]},
    {"molecule": "C=C[C@H]1C[N@@]2CC[C@H]1C[C@@H]2[C@@H](O)c1ccnc2ccc(OC)cc12", "note": "[Quinidine]", "values": [
      {"measurement": "Extrasystoles (%)", "setting": "[1]; concentration 10^−6 M", "result": 83.3, "unit": "%"},
      {"measurement": "Fibrillations (%)", "setting": "[1]; concentration 10^−6 M", "result": 0, "unit": "%"},
      {"measurement": "Tachycardia (%)", "setting": "[1]; concentration 10^−6 M", "result": 50, "unit": "%"},
      {"measurement": "Arrhythmia Severity Index", "setting": "[1]; concentration 10^−6 M", "result": "2.3 *"}
    ]},
    {"molecule": "COc1ccccc1OCCNCC(O)COc1cccc2[nH]c3ccccc3c12", "note": "(centres unmarked) [Carvedilol, reference compound]", "values": [
      {"measurement": "ED50", "setting": "[3]; Rattus norvegicus, prophylactic, iv 15 min before adrenaline 20 μg/kg, Litchfield and Wilcoxon, limits in brackets, read-out: ED50 (a dose producing a 50% inhibition of ventricular contractions)", "result": 0.36, "unit": "mg/kg"},
      {"measurement": "Blocks (%)", "setting": "[3]; [5]", "result": 100, "unit": "%"},
      {"measurement": "Bradycardia (%)", "setting": "[3]; [5]", "result": 16.6, "unit": "%"},
      {"measurement": "Extrasystoles (%)", "setting": "[3]; [5]", "result": 100, "unit": "%"},
      {"measurement": "Mortality (%)", "setting": "[3]; [5]", "result": 66.7, "unit": "%"},
      {"measurement": "decrease of the number of adrenaline-induced extrasystoles", "setting": "[4]; 5 mg/kg iv immediately after adrenaline 20 µg/kg, compared to the vehicle-treated group", "result": 95.2, "unit": "%"},
      {"measurement": "Blocks (%)", "setting": "[4]; [6]", "result": 83.3, "unit": "%"},
      {"measurement": "Mortality (%)", "setting": "[4]; [6]", "result": 16.7, "unit": "%"}
    ]}
  ]
}
